Laboratory results from US20250325529A1, “INHIBITORS OF FATTY ACID BINDING PROTEINS (FABPs), METHODS OF USE AND METHODS OF MAKING” (Celloram, inc., priority 2024, published 2025).
“Also recorded” adds a separate entry of the source.

Tests used:
FABP5 = FABP5 (Homo sapiens (Human), UniProt Q01469); assay: Fluorescence (ANS) competition binding assay, FABP5; conditions: ANS displacement
Method: (§1) This example illustrates a two-step fluorescence binding assay study used to determine the binding affinity of the various inhibitor compounds disclosed herein with the various FABPs: FABP3, FABP4, FABP5 and FABP7. Further secondary screening studies were carried out for compounds with high binding affinities toward the FABPs and based on their ability to activate the nuclear receptors PPARα, PPARγ, or PPARδ.
(§2) Binding assays for FABP3, FABP4, FABP5 and FABP7 were carried out by fluorescence titrations. His-tagged FABPs were bacterially expressed in E. coli, purified using Ni Sepharose beads, and the equilibrium dissociation constants (Kd) that characterize their interactions with different inhibitor compounds were measured by fluorescence competition assays. The method entails two steps as described in e.g., Lin, Q. et al., “Ligand selectivity of the peroxisome proliferator-activated receptor alpha,” Biochemistry 38, 185-190, doi:10.1021/bi9816094 [pii](1999). In the first step, Kd for the association of the protein with the fluorescent fatty acid probe ANS was measured. Protein (2 μM) was titrated with ANS from a concentrated solution in DMSO. Ligand binding was monitored by following the increase in the fluorescence of the ligand upon binding to the protein, and Kd for the association of ANS with the each FABP was computed from titration curves as described in e.g., Norris, A. W. & Li, E., “Fluorometric titration of the CRABPs,” Methods Mol Biol 89, 123-139 (1998)). In the second step, Kds for binding of non-fluorescent ligands were measured by monitoring their ability to displace ANS in the binding pocket of the protein. Each FABP was precomplexed with ANS at 1:1 molar ratio and titrated with the different compounds whose binding was reflected by a decrease in probe fluorescence. Kds were extracted from the EC50 of the competition curve and the measured Kd for ANS.

PPARγ = PPARγ (Homo sapiens (Human), UniProt P37231); assay: Transcriptional activation assay in COS7 cells, PPARγ; format: cell-based; conditions: PPRE luciferase reporter, PD151 and PD152 at 10 μM
Method: COS-7 were cultured in 6-well plates and co-transfected with either a luciferase reporter driven by 3 copies of a PPRE and expression vector for either PPARδ, PPARα or PPARγ together with a vector harboring cDNA for β-galactosidase, serving as a transfection control. To test whether FABP4 or FABP5 mediate activation of their cognate receptors PPARγ and PPARδ, respectively, cells were also co-transfected with a plasmid harboring sequence of either FABP4 or FABP5. 18 h post-transfection, cells were placed in a serum-free medium and treated with agonist/compound. 18 h. later, cells were lysed, luciferase activity was assayed (Promega, WI, USA) and corrected for transfection efficiency by the activity of β-galactosidase.
Transcriptional activation assays were carried out utilizing COS7 cells as described above.

FABP7 = FABP7 (Homo sapiens (Human), UniProt O15540); assay: Fluorescence (ANS) competition binding assay, FABP7; conditions: ANS displacement
Method: as §1, §2

[1] = system: Escherichia coli tester strain WP2 uvrA (pKM101); assay: Ames test (Bacterial Reverse Mutation Test), E. coli; format: cell-based
Method: PD152 (compound 2) was tested for genotoxic and cytotoxic side effects by Ames test. The Ames test is a Bacterial Reverse Mutation Test of mutagenicity that utilizes Salmonella typhimurium tester strains TA98, TA100, TA1535, TA1537 and Escherichia coli tester strain WP2 uvrA (pKM101), both in the presence and absence of S9.
The compound PD152 was tested at 10 concentrations (0.032-1000 μg/plate) in the presence of, or absence of, the hepatic enzyme S9.

[2] = system: normal human mammary epithelial cells (HMEC); assay: Proliferation assay (Incucyte confluency), HMEC; format: cell-based
Method: COS-7, MDA-MB-231, and HepG2, were cultured in Dulbecco's modified Eagle's medium (DMEM) supplemented with 10% fetal bovine serum (Invitrogen Life Sciences, Carlsbad, CA). BT-549, OVCAR5 and OVCAR8 cells were cultured in L-Glutamine containing RPMI medium supplemented with 10% fetal calf serum (Invitrogen Life Sciences, Carlsbad, CA). The primary Human Mammary Epithelial Cells (HMEC) were cultured in mammary epithelial cell complete medium (basal medium plus rH-Insulin (5 μg/mL); L-Glutamine (6 mM); Epinephrine (1 μM); Apo-Transferrin (5 μg/mL); rH-TGF-α (0.5 ng/mL); ExtractP (0.4%); Hydrocortisone Hemisuccinate (100 ng/mL)).
2000 cells were plated in each well of 96-well plate. The next day cells were treated with compounds and incubated in Incucyte for 4 days. Images taken every 4 hours for the duration of the time were analyzed to calculate percentage of confluency in response to the treatments. Growth inhibition was calculated as 1—(percentage of viable cells out of untreated cells).

[3] = presence of S9, 0.0312 μg/plate

PPARγ, sequence (P37231 whole entry, species assumed): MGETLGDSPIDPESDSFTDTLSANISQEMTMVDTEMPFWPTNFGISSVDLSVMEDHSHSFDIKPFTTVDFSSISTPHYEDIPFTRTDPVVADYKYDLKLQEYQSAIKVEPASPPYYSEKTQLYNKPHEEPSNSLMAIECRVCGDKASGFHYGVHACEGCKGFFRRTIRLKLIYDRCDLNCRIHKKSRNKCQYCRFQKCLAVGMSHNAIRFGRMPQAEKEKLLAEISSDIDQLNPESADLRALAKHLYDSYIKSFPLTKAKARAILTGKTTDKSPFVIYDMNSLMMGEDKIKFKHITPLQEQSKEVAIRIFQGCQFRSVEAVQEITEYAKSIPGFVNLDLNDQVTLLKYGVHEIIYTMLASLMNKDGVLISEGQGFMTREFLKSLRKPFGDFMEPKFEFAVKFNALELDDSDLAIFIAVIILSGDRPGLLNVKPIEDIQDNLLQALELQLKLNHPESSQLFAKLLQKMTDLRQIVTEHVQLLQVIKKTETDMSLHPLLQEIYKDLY
FABP7, sequence (O15540 whole entry, species assumed): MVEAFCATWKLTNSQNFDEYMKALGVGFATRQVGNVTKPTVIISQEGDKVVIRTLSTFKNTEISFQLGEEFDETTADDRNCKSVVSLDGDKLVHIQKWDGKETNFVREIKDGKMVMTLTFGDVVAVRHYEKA
FABP5, sequence (Q01469 whole entry, species assumed): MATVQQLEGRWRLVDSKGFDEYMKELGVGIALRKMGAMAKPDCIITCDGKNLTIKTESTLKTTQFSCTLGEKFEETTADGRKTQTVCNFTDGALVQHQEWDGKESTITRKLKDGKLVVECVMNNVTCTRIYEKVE

With `CC(C)Oc1nc(NC(=O)CSCC(=O)O)c(Cl)cc1Cl` [PD152, 2-((2-((3,5-dichloro-6-isopropoxypyridin-2-yl)amino)-2-oxoethyl)thio)acetic acid] the Kd (FABP5) was 28 nM, the “Activation of transcription by PPARγ” value (PPARγ) was “None of these tested compounds activated; also recorded: none of the tested compounds PD151 and PD152 activated transcription” and the Kd (FABP7) was 989 nM. The Fold increase ([1]; absence of S9, 0.0312 μg/plate) was 1, the “Mean number of revertants” value ([1]; absence of S9, 0.0312 μg/plate) was 41 and the Fold increase ([1]; absence of S9, 0.1 μg/plate) was 1. For the same molecule, the “Mean number of revertants” value ([1]; absence of S9, 0.1 μg/plate) was 39, the Fold increase ([1]; absence of S9, 0.316 μg/plate) was 1 and the “Mean number of revertants” value ([1]; absence of S9, 0.316 μg/plate) was 41. The Fold increase ([1]; absence of S9, 1 μg/plate) was 1, the “Mean number of revertants” value ([1]; absence of S9, 1 μg/plate) was 39 and the Fold increase ([1]; absence of S9, 3.16 μg/plate) was 1. The “Mean number of revertants” value ([1]; absence of S9, 3.16 μg/plate) was 42, the Fold increase ([1]; absence of S9, 10 μg/plate) was 1 and the “Mean number of revertants” value ([1]; absence of S9, 10 μg/plate) was 40. The Fold increase ([1]; absence of S9, 31.6 μg/plate) was 1, the “Mean number of revertants” value ([1]; absence of S9, 31.6 μg/plate) was 42 and the Fold increase ([1]; absence of S9, 100 μg/plate) was 1. For the same molecule, the “Mean number of revertants” value ([1]; absence of S9, 100 μg/plate) was 42, the Fold increase ([1]; absence of S9, 316 μg/plate) was 1 and the “Mean number of revertants” value ([1]; absence of S9, 316 μg/plate) was 40. For the same molecule, the Fold increase ([1]; absence of S9, 1000 μg/plate) was 1, the “Mean number of revertants” value ([1]; absence of S9, 1000 μg/plate) was 42 and the Fold increase [1, 3] was 1. For the same molecule, the “Mean number of revertants” value [1, 3] was 39, the Fold increase ([1]; presence of S9, 0.1 μg/plate) was 1 and the “Mean number of revertants” value ([1]; presence of S9, 0.1 μg/plate) was 42. For the same molecule, the Fold increase ([1]; presence of S9, 0.316 μg/plate) was 1, the “Mean number of revertants” value ([1]; presence of S9, 0.316 μg/plate) was 40 and the Fold increase ([1]; presence of S9, 1 μg/plate) was 1. For the same molecule, the “Mean number of revertants” value ([1]; presence of S9, 1 μg/plate) was 38, the Fold increase ([1]; presence of S9, 3.16 μg/plate) was 1 and the “Mean number of revertants” value ([1]; presence of S9, 3.16 μg/plate) was 38. The Fold increase ([1]; presence of S9, 10 μg/plate) was 1, the “Mean number of revertants” value ([1]; presence of S9, 10 μg/plate) was 41 and the Fold increase ([1]; presence of S9, 31.6 μg/plate) was 1. For the same molecule, the “Mean number of revertants” value ([1]; presence of S9, 31.6 μg/plate) was 41, the Fold increase ([1]; presence of S9, 100 μg/plate) was 1 and the “Mean number of revertants” value ([1]; presence of S9, 100 μg/plate) was 39. For the same molecule, the Fold increase ([1]; presence of S9, 316 μg/plate) was 1, the “Mean number of revertants” value ([1]; presence of S9, 316 μg/plate) was 40 and the Fold increase ([1]; presence of S9, 1000 μg/plate) was 1. The “Mean number of revertants” value ([1]; presence of S9, 1000 μg/plate) was 40, the “Concentrations at which proliferation of HMEC cells was inhibited” value ([2]; HMEC cells, 4 days) was greater than 125 µM and the IC50 ([2]; Homo sapiens, 96 h, HMEC cells, 4 days, read-out: IC50, inhibition of proliferation) was 319000 nM. The “Fold lower efficacy in HMEC than in BT-549 cells” value ([2]; IC50 HMEC vs BT-549) was 305 fold and the “Fold lower efficacy in HMEC than in MB-231 cells” value ([2]; IC50 HMEC vs MB-231) was 532 fold.
